Test results: patent US12473291B2 (priority 2019, dated 2025)

Assays:
[1] = test system: SD rats; experiment: animal or person; format: in vivo; settings: rat, in vivo
[2] = test system: KM mice; experiment: animal or person; format: in vivo; settings: mouse, in vivo

In the case of “(((((3-Methylbutane-2-yl)oxy)carbonyl)oxy) methyl 3-((4S)-9-bromo-8-fluoro-1-methyl-6- (pyridine-2-yl)-4H-benzo[f]imidazo [1,2-a][1,4]diaza-4-ylpropionate formate [Example 73]”, the “2ED50 duration” value [1] is reported as 2.45 min, the 2ED50 recovery time [1] is reported as 2.44 min and the ED50 [1] is reported as 5.2 mg/kg. The Quality of recovery [1] was “++ (key: “+” means <1 mm; “++” means 1-3 min; “+++” means 3-5 min; “++++” means 5-10 min; “+++++” means >10 mm)”, the 2ED50 duration [2] was 3.33 min and the 2ED50 recovery time [2] was 2.38 min. For the same substance, the ED50 [2] was 26.3 mg/kg and the Quality of recovery [2] was “+++ (key: “+” means <1 mm; “++” means 1-3 min; “+++” means 3-5 min; “++++” means 5-10 min; “+++++” means >10 mm)”.
